Source: the supplement of paper PMC10307832

Compound: Cc1ccc(Nc2nccc(N(C)c3ccc4c(C)n(C)nc4c3)n2)cc1S(N)(=O)=O [Pazopanib] + CCNC(=O)c1noc(-c2cc(C(C)C)c(O)cc2O)c1-c1ccc(CN2CCOCC2)cc1 [Luminespib] (partner 0.01 µM)
Assay: relative viability (nuclei count vs DMSO), 5 days (fraction); higher = more cells survive
Conditions: first compound 0.01 µM
Procedure, shortened: (§1)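 Relative viability equals treated-well nuclei counts divided by vehicle-well nuclei counts. Counts came from 4× images of lung cancer cell lines grown in 1536-well plates for 5 days after pin-tool dosing on the day after seeding. Dosing used one drug alone or a fixed anchor-drug dose plus five library-drug doses (not always all listed) in √10 steps, and values are medians of duplicate plates.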

Cell Line	relative viability
NCI-H1395	0.566
H3255	0.854
COR-L23	0.644
COR-L 105	1.06
LOU-NH91	0.335
ChaGo-K-1	0.632
SW 900	0.153
NCI-H1563	0.476
NCI-H2170	0.675
ABC-1	0.627

Same assay, conditions: first compound 0.03162 µM

Cell Line	relative viability
NCI-H2342	0.736
NCI-H1623	0.515
NCI-H838	0.351
NCI-H1650	0.189
NCI-H1993	0.728
NCI-H2347	0.453
PC-14	0.177
LCLC-103H	1.02
NCI-H596	1.05
NCI-H2126	0.928
EMC-BAC-2	1.2
NCI-H2085	0.41
NCI-H1666	1.08
NCI-H647	0.124
LK-2	0.208
NCI-H2087	0.174
NCI-H1395	0.588
H3255	0.883
COR-L23	0.791
COR-L 105	0.539
LOU-NH91	0.336
ChaGo-K-1	0.595
NCI-H522	0.912
SW 900	0.177
NCI-H1563	0.507
NCI-H2170	0.766
ABC-1	0.672

Same assay, conditions: first compound 0.1 µM

Cell Line	relative viability
NCI-H2342	0.612
NCI-H1623	0.512
NCI-H838	0.282
NCI-H1650	0.235
NCI-H1993	0.885
NCI-H2347	0.898
PC-14	0.173
LCLC-103H	1.03
NCI-H596	1.02
NCI-H2126	0.903
EMC-BAC-2	1.16
NCI-H2085	0.5
NCI-H1666	0.99
NCI-H647	0.199
LK-2	0.176
NCI-H2087	0.171
NCI-H1395	0.642
H3255	0.869
COR-L23	0.72
COR-L 105	0.765
LOU-NH91	0.331
ChaGo-K-1	0.586
NCI-H522	1.13
SW 900	0.177
NCI-H1563	0.497
NCI-H2170	0.712

Same assay, conditions: first compound 0.3162 µM

Cell Line	relative viability
NCI-H2342	0.759
NCI-H1623	0.479
NCI-H838	0.21
NCI-H1650	0.195
NCI-H1993	0.885
NCI-H2347	0.309
PC-14	0.177
LCLC-103H	0.937
NCI-H596	0.908
NCI-H2126	0.846
EMC-BAC-2	1.14
NCI-H2085	0.434
NCI-H1666	1.06
NCI-H647	0.217
LK-2	0.168
NCI-H2087	0.165
NCI-H1395	0.781
H3255	0.8
COR-L23	0.654
COR-L 105	0.909
LOU-NH91	0.324
ChaGo-K-1	0.492
NCI-H522	1.06
SW 900	0.177
NCI-H1563	0.519
NCI-H2170	0.532
ABC-1	0.41

Same assay, conditions: first compound 1 µM

Cell Line	relative viability
NCI-H2342	0.588
NCI-H1623	0.634
NCI-H838	0.322
NCI-H1650	0.187
NCI-H1993	0.913
NCI-H2347	0.471
PC-14	0.142
LCLC-103H	1.05
NCI-H596	1.19
NCI-H2126	0.946
EMC-BAC-2	1.25
NCI-H2085	0.425
NCI-H1666	1.06
NCI-H647	0.14
LK-2	0.219
NCI-H2087	0.159
NCI-H1395	0.62
H3255	0.982
COR-L23	0.785
COR-L 105	0.787
LOU-NH91	0.275
ChaGo-K-1	0.574
NCI-H522	1.07
SW 900	0.164
NCI-H1563	0.526
NCI-H2170	0.627
ABC-1	0.961

Compound: Cc1ccc(Nc2nccc(N(C)c3ccc4c(C)n(C)nc4c3)n2)cc1S(N)(=O)=O [Pazopanib] + C[C@]1(O)C[C@@H](c2nc(-c3ccc4ccc(-c5ccccc5)nc4c3)c3c(N)nccn32)C1 [Linsitinib] (partner 1 µM)
Assay: as above
Conditions: first compound 0.01 µM
Procedure, shortened: as §1

Cell Line	relative viability
NCI-H838	1.01
EBC-1	0.964
NCI-H1703	0.441
NCI-H1993	0.717
NCI-H2347	0.854
PC-14	0.971
LCLC-103H	0.846
NCI-H596	0.833
NCI-H2126	0.563
EMC-BAC-2	0.758
NCI-H2085	0.818
Calu-6	0.865
HCC-366	0.472
NCI-H1666	1.15
NCI-H647	1.17
LK-2	0.486
NCI-H2087	1.02
NCI-H1395	0.983
H3255	0.888
COR-L23	1.02
COR-L 105	0.909
IA-LM	0.428
LOU-NH91	0.89
A549	0.452
HCC-78	0.403
NCI-H1299	0.902
NCI-H1563	1.13
ABC-1	0.835

Same assay, conditions: first compound 0.03162 µM

Cell Line	relative viability
NCI-H838	1.05
EBC-1	0.979
NCI-H1993	0.757
NCI-H2347	1.01
PC-14	1
LCLC-103H	1.22
NCI-H596	1.12
NCI-H2126	0.734
EMC-BAC-2	0.855
NCI-H2085	0.862
Calu-6	1.07
HCC-366	0.73
NCI-H1666	0.857
NCI-H647	1.4
LK-2	0.564
NCI-H2087	0.967
NCI-H1395	1.27
H3255	0.954
COR-L23	1.01
COR-L 105	0.964
IA-LM	0.553
LOU-NH91	0.98
A549	0.638
HCC-78	0.578
NCI-H1299	1.02
NCI-H1563	1.18
ABC-1	0.917

Same assay, conditions: first compound 0.1 µM

Cell Line	relative viability
NCI-H838	1.01
EBC-1	0.977
NCI-H1703	0.264
NCI-H1993	0.726
NCI-H2347	1.1
PC-14	0.961
LCLC-103H	1.06
NCI-H596	1.24
NCI-H2126	0.749
EMC-BAC-2	0.864
NCI-H2085	0.901
Calu-6	0.957
HCC-366	0.674
NCI-H1666	0.909
NCI-H647	1.17
LK-2	0.475
NCI-H2087	1.13
NCI-H1395	1.07
H3255	1.01
COR-L23	0.988
COR-L 105	1.1
IA-LM	0.527
LOU-NH91	0.984
A549	0.591
HCC-78	0.435
NCI-H1299	1.01
NCI-H1563	1.25
ABC-1	0.751

Same assay, conditions: first compound 0.3162 µM

Cell Line	relative viability
NCI-H838	1.18
EBC-1	0.922
NCI-H1703	0.243
NCI-H1993	0.638
NCI-H2347	1.09
PC-14	0.985
LCLC-103H	1.04
NCI-H596	1.06
NCI-H2126	0.677
EMC-BAC-2	0.84
NCI-H2085	0.797
Calu-6	0.908
HCC-366	0.828
NCI-H1666	0.767
NCI-H647	1.23
LK-2	0.517
NCI-H2087	0.841
NCI-H1395	0.992
H3255	0.814
COR-L23	1.15
COR-L 105	0.822
IA-LM	0.613
LOU-NH91	1.04
A549	0.598
HCC-78	0.454
NCI-H1299	0.97
NCI-H1563	1.3
ABC-1	0.738

Same assay, conditions: first compound 1 µM

Cell Line	relative viability
NCI-H838	1.19
EBC-1	0.979
NCI-H1703	0.301
NCI-H1993	0.852
NCI-H2347	1.12
PC-14	1
LCLC-103H	1.14
NCI-H596	1.03
NCI-H2126	0.774
EMC-BAC-2	0.803
NCI-H2085	0.887
Calu-6	1.04
HCC-366	0.885
NCI-H1666	1.07
NCI-H647	1.11
LK-2	0.524
NCI-H2087	0.895
NCI-H1395	1.05
H3255	1.03
COR-L23	0.975
COR-L 105	1.21
IA-LM	0.622
LOU-NH91	0.935
A549	0.757
HCC-78	0.668
NCI-H1299	0.932
NCI-H1563	1.18
ABC-1	0.779
